Literature values in patent publication US8529907B2, “Methods of treating ophthalmic disorders” (Nikken Sohonsha Corporation, priority 2008, dated 2013).

Legend:
RP patients = settings: 15,000 U/d

SMILES: CC1=C(/C=C/C(C)=C/C=C/C(C)=C/C=O)C(C)(C)CCC1 [11-cis-retinal]
- rescue of mutant opsin P23H (mutant opsin P23H): effectively rescued

SMILES: CC1=C(/C=C/C(C)=C\C=C\C(C)=C\C=O)C(C)(C)CCC1 [9-cis-retinal]
- duration of supported rod retinal function post-treatment (Rpe65-deficient mice; early intervention): more than 6 months
- retinal ester accumulation (Rpe65-deficient mice; early intervention): significantly attenuated
- rod photopigment and rod physiology (Rpe65-deficient mice; oral, within 48 h, Rpe65-deficient mice): formation of rod photopigment and dramatic improvement in rod physiology
- rescue of mutant opsin P23H (mutant opsin P23H): effectively rescued

SMILES: CCCCCCCCCCCCCCCC(=O)OC/C=C(C)/C=C/C=C(C)/C=C/C1=C(C)CCCC1(C)C [Vitamin A palmitate]
- slowing of the progress of RP (RP patients): about 2 % per year
